The values that follow come from patent US8486863B2, “Activators of lateral root formation” (VIB VZW, priority 2006, dated 2013).

Test [1] deals with Wild-type Arabidopsis thaliana. The experiment in a line: Dose-response analysis of lateral root density and root length. It counts as in vivo. The following applies: dose-response, FIG. 3. As to the method:
FIG. 3: Dose-response analysis of class 1 (upper panel) and class 2 (lower panel) activators. Wild-type Arabidopsis thaliana seeds were germinated under standard conditions on agar plates. After 3 days of germination, seedlings were transferred to agar plates containing compound at different concentrations. Lateral root density was measured 10 days after germination. Bars represent standard errors.
FIG. 4: Dose-response analysis of A2, A11, A12, A14 and NAA. Wild-type Arabidopsis thaliana seeds were germinated under standard conditions on agar plates. After 3 days of germination, seedlings were transferred to agar plates containing compound at different concentrations and 1% DMSO. Plants transferred to agar plates containing 1% DMSO and no compound were used as controls. Lateral root density (left panels) and root length (right panels) were measured 10 days after germination. Bars represent standard errors.
For further phenotypic analysis, all plants were grown on vertically oriented square plates (Greiner Labortechnik, Austria) with solid medium derived from standard MS medium under the same conditions. 3 DAG plants were transferred to medium supplemented with compounds and were left to grow for another 7 days. After this, root length and number of LRs were counted using ImageJ 1.34 freeware.
As a subsequent step, the phenotypic effect of the 16 selected activators was determined in a dose-response analysis in which LR density (number of LRs per cm) was quantified (FIG. 3). Based upon potency and structure, two different classes of activators could be identified.

Test [2] relates to genes involved in auxin biosynthesis, auxin transport, auxin signaling and cell cycle. The test is described as follows: Q-PCR transcript profiling of roots after compound treatment. It counts as in vivo, Arabidopsis thaliana. The following applies: 30 μM; 6 hrs or 24 hrs treatment. The method, then:
FIG. 5: Transcript profiling of roots of wild-type Arabidopsis thaliana plants after 6 hrs or 24 hrs treatment with A2 (upper panel), A14 (middle panel) or A11 (lower panel) at a concentration of 30 μM.
RNA was extracted with the RNeasy kit. Poly(dT) cDNA was prepared from […] of total RNA with Superscript III reverse transcriptase (Invitrogen) and quantified on an LightCycler 480 apparatus (Roche) with the SYBR Green I Master kit (Roche) according to the manufacturers instructions. Target quantifications were performed with specific primer pairs designed with the Beacon Designer 4.0 (Premier Biosoft International). All PCRs were performed in triplicate. […] The primers used to quantify gene expression levels were: […]
Using Q-PCR, the expression of selected genes involved in auxin biosynthesis, auxin transport, auxin signaling and cell cycle was analyzed in response to compound treatment (FIG. 5).

For test [3], the system named is auxin receptor mutant tir1. The experiment in a line: Effect of activators on the auxin receptor mutant tir1 compared with wild type. The class given is in vivo, Arabidopsis thaliana. The following applies: tir1 mutant vs wild type, FIG. 13. An excerpt:
FIG. 13: Effect of activators on the auxin receptor mutant TIR1 compared with wild type.

For test [4], the system named is auxin signaling mutants. The experiment in a line: Effect of activators on lateral root density of auxin signaling mutants (Table 2). The class given is in vivo, Arabidopsis thaliana. An excerpt:
Afb1, Afb2, Afb3 and the triple mutant Tirlafb2afb3 were described by Dhamasiri et al. (2005). Tir1 was described by Ruegger et al., (1998); 1aa28 by Rogg et al., (2001); Tir7-1 by Ruegger et al., (1997); the Cyp79b2b3 double mutant by Ljung et al. (2005); the arf7arf19 double mutant by Fukaki et al., (2005); Aux1 by Bennett et al., (1996); Xbat32 by Nodzon et al., (2004), Axr1-12 by Timpte et al., (1995), Slr1 by Fukaki et al., 2002 and Axr3-1 by Collet et al., (2000) and the mutants were obtained from the publishing authors.
For phenotypic analysis, all mutants were grown on vertically oriented square plates (Greiner Labortechnik, Austria) with solid medium derived from standard MS medium. The plates were put in a growth chamber under continuous light (110 μE.m2.s1 photosynthetically active radiation, supplied by cool-white fluorescent tungsten tubes; Osram) at 22° C. Three days after germination, the mutant plants were transferred to medium supplemented with compounds and were left to grow for another 7 days. After this, root length and number of lateral roots were counted using ImageJ 1.34 freeware.

For test [5], the target named is T1, auxin receptor TIR1 (Arabidopsis thaliana, UniProt Q38825+Q570C0).
T1 construct: made in house; host or cells: wheat germ in vitro transcription/translation (IVTT) extract
T1 sequence (Q570C0 whole entry, other chains not shown): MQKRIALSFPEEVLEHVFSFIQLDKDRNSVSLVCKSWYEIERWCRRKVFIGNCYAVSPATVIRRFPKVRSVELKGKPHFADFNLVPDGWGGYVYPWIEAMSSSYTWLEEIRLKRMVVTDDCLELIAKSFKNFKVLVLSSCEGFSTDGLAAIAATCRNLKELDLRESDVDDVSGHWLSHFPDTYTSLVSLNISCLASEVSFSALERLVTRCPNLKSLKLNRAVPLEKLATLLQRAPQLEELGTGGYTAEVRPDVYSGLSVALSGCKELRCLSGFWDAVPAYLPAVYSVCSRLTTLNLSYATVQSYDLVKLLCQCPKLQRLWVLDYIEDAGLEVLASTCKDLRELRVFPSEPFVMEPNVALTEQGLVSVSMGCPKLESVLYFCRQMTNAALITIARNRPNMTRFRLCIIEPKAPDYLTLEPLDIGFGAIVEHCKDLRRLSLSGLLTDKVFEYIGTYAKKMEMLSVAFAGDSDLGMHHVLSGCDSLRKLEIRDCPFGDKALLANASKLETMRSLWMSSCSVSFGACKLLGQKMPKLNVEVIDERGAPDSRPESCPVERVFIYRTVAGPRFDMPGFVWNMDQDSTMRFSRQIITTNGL
The test is described as follows: In vitro pull-down binding assay to auxin receptor TIR1. The conditions noted are these: in vitro binding assay (FIG. 2). The method, then:
FIG. 2: In vitro binding assay to analyze binding of the 16 selected activators to the auxin receptor TIR1.
Pull-down assays with wheatgerm-expressed TIR1-Myc were performed by combining […] of IVTT reaction extract with […] of biotinylated domain II peptide and […] of EB containing 1 mg/ml BSA with auxin treatments as indicated. The assays were incubated for 30 min at 4° C. and recovered on streptavidin-agarose. The final processing of pull-down assays including electrophoresis, western transfer and blotting with anti-Myc antibodies has been described in Kepinski and Leyser, 2004.
Earlier studies have shown that sirtinol is metabolized in vivo to NAA (Dai et al., 2005) while IAA, NAA, 2,4-D act by binding directly to the auxin-receptor TIR1 (Kepinski and Leyser, 2005).

Regarding `COc1ccccc1CNC(=O)C(C)Sc1ccc(Cl)cc1` (stereo not shown) [A14, 2-[(4-chlorophenyl)thio]-N-(2-methoxybenzyl)propanamide], the “potency as activator of LR development (LR density)” value in test [1] was “most potent activators of class 2”. For the same compound, the “stage of LR initiation at which the effect on gene expression is exerted” value in test [2] is given as “early stages of LR initiation (6 h)”. Moreover, the “TIR1 dependence of the working of the compound” value in test [3] is “strictly TIR1 dependent”. Moreover, the lateral root density is 24.29 LR/cm in test [4] (Afb1-1, 30 uM); 22.38 LR/cm in test [4] (Afb2-1, 30 uM); 30.09 LR/cm in test [4] (Afb3-1, 30 uM); 0.00 LR/cm in test [4] (Arf7Arf19, 30 uM); 32.75 LR/cm in test [4] (Arf16, 30 uM); 32.68 LR/cm in test [4] (Arf17, 30 uM). The lateral root density stood at 34.01 LR/cm in test [4] (Axrt-12, 30 uM); 33.25 LR/cm in test [4] (Cyp79, 30 uM); 20.71 LR/cm in test [4] (Iaa28-1, 30 uM); 0.52 LR/cm in test [4] (Tir1-1, 30 uM); 33.41 LR/cm in test [4] (Tir7-1, 30 uM); 0.00 LR/cm in test [4] (TirTM, 30 uM). The lateral root density in test [4] (Xbat32, 30 uM) came to 10.88 LR/cm.

For `O=C(O)C1SCCN1c1ccccc1` (stereo not shown) [A15, 3-phenyl-1,3-thiazolidine-2-carboxylic acid], the “binding to TIR1” value in test [5] is given as “could bind to TIR1”.

For `COc1cc(-c2nc3ccccn3c2N=Cc2cccc(Cl)c2Cl)ccc1O` [A10, 4-{3-[(2,3-dichlorobenzylidene)amino]imidazo[1,2-a]pyridin-2-yl}-2-methoxyphenol], in test [3], the “TIR1 dependence of the working of the compound” value is “strictly TIR1 dependent”. In addition, the lateral root density in test [4] (Afb1-1, 3 uM) came to 11.79 LR/cm; in test [4] (Afb2-1, 3 uM), 15.90 LR/cm; in test [4] (Afb3-1, 3 uM), 17.08 LR/cm; in test [4] (Arf7Arf19, 3 uM) it was 0.00 LR/cm; in test [4] (Arf16, 3 uM), 19.95 LR/cm; in test [4] (Arf17, 3 uM), 10.80 LR/cm. The lateral root density in test [4] (Axrt-12, 3 uM) is 7.90 LR/cm; in test [4] (Cyp79, 3 uM), 33.08 LR/cm; in test [4] (Iaa28-1, 3 uM), 0.00 LR/cm; in test [4] (Tir1-1, 3 uM) it was 0.77 LR/cm; in test [4] (Tir7-1, 3 uM) it was 8.49 LR/cm; in test [4] (TirTM, 3 uM) it was 0.00 LR/cm. The compound further gave a lateral root density in test [4] (Xbat32, 3 uM) of 8.37 LR/cm.

On to `CCOC(=O)c1c(NC(=O)COc2ccc(Cl)cc2C)sc2c1CC(C)(C)OC2` [A2, ethyl 2-{[(4-chloro-2-methylphenoxy)acetyl]amino}-5,5-dimethyl-4,7-dihydro-5H-thieno[2,3-c]pyran-3-carboxylate], for which, in test [1], the “potency as activator of LR development (LR density)” value is “most potent activators of class 2”. Besides, in test [2], the “stage of LR initiation at which the effect on gene expression is exerted” value is “early stages of LR initiation (6 h)”. Besides, the lateral root density came to 13.86 LR/cm in test [4] (Afb1-1, 30 uM); 10.07 LR/cm in test [4] (Afb2-1, 30 uM); 10.03 LR/cm in test [4] (Afb3-1, 30 uM); 0.00 LR/cm in test [4] (Arf7Arf19, 30 uM); 9.56 LR/cm in test [4] (Arf16, 30 uM); 8.67 LR/cm in test [4] (Arf17, 30 uM). The lateral root density in test [4] (Axrt-12, 30 uM) was determined as 13.97 LR/cm; in test [4] (Cyp79, 30 uM), 13.69 LR/cm; in test [4] (Iaa28-1, 30 uM), 4.32 LR/cm; in test [4] (Tir1-1, 30 uM), 11.98 LR/cm; in test [4] (Tir7-1, 30 uM), 28.57 LR/cm; in test [4] (TirTM, 30 uM), 0.00 LR/cm. This compound also gave a lateral root density in test [4] (Xbat32, 30 uM) of 9.67 LR/cm.
